According to ChEMBL document CHEMBL5108053 (J Med Chem, 2022):

How the values were obtained:
[1] = Stability in human hepatocytes assessed as intrinsic clearance at 2 uM measured per 10^6 cells incubated at 15 to 120 mins by LC-MS/MS analysis; format: ADME, cell-based, Hepatocyte; conditions: time 15-120 min
[2] = Volume of distribution in C57BL/6 mouse at 1 mg/kg, iv or 10 mg/kg, po by HPLC analysis; format: ADME, organism-based; conditions: in vivo
[3] = Oral bioavailability in C57BL/6 mouse at 1 mg/kg, iv or 10 mg/kg by HPLC analysis; format: ADME, organism-based; conditions: in vivo
[4] = Lipophilicity, logD of the compound in Octanol/potassium phosphate buffer at pH 7.4 after 1 hr by shake-flask based LC-MS/MS analysis; format: physicochemical; conditions: octanol/water, pH 7.4, 1 h
[5] = Stability in mouse hepatocytes assessed as intrinsic clearance at 2 uM measured per 10^6 cells incubated at 15 to 120 mins by LC-MS/MS analysis; format: ADME, cell-based, Hepatocyte; conditions: time 15-120 min

Row | SMILES | CLH [1] [µL/min] | Vd [2] [L/kg] | bioavailability [3] [%] | logD [4] | CLH [5] [µL/min]
1 | OC[C@H]1O[C@H](Sc2cncc(Br)c2)[C@H](O)[C@@H](n2cc(-c3cc(F)c(F)c(F)c3)nn2)[C@H]1O [SELVIGALTIN] | 0.15 | 1.1 | 68 | 3 | –
2 | CCCCSC[C@H]1O[C@@H](S[C@@H]2O[C@H](CO)[C@H](O)[C@H](n3cc(-c4cccc(F)c4)nn3)[C@H]2O)[C@H](O)[C@@H](n2cc(-c3cccc(F)c3)nn2)[C@H]1O | – | – | – | 3.4 | –
3 | C[C@H]1O[C@@H](S[C@@H]2O[C@H](CO)[C@H](O)[C@H](n3cc(-c4cccc(F)c4)nn3)[C@H]2O)[C@H](O)[C@@H](n2cc(-c3cccc(F)c3)nn2)[C@H]1O | – | – | – | 2.4 | –
4 | OC[C@H]1O[C@H](Sc2ccc(Cl)c(Cl)c2)[C@H](O)[C@@H](n2cc(-c3cc(F)c(F)c(F)c3)nn2)[C@H]1O | 0.7 | 0.4 | 75 | 4.6 | 0.8
5 | OC[C@H]1O[C@@H](S[C@@H]2O[C@H](CO)[C@H](O)[C@H](n3cc(-c4cccc(F)c4)nn3)[C@H]2O)[C@H](O)[C@@H](n2cc(-c3cccc(F)c3)nn2)[C@H]1O [OLITIGALTIN] | – | – | – | 2.1 | –
6 | N#Cc1ccc(S[C@H]2O[C@H](CO)[C@H](O)[C@H](n3cc(-c4cc(F)c(F)c(F)c4)nn3)[C@H]2O)cc1Cl | 0.8 | 0.9 | 95 | 3.7 | 1.1
7 | CC(=O)Nc1ccc(S[C@H]2O[C@H](CO)[C@H](O)[C@H](n3cc(-c4cc(F)c(F)c(F)c4)nn3)[C@H]2O)cc1 | – | – | – | 2.28 | –
